In patent US20260376293A1, “METHODS FOR STUDYING GPR158 PHARMACOLOGY AND IDENTIFICATION OF ITS LIGANDS” (UNIVERSITY OF FLORIDA RESEARCH FOUNDATION, INCORPORATED, priority 2022, published 2026):

Biological target: T1, GPR158 R173A mutant (Homo sapiens, UniProt Q5T848, R173A)
T1 sequence (Q5T848 24-1215 R173A): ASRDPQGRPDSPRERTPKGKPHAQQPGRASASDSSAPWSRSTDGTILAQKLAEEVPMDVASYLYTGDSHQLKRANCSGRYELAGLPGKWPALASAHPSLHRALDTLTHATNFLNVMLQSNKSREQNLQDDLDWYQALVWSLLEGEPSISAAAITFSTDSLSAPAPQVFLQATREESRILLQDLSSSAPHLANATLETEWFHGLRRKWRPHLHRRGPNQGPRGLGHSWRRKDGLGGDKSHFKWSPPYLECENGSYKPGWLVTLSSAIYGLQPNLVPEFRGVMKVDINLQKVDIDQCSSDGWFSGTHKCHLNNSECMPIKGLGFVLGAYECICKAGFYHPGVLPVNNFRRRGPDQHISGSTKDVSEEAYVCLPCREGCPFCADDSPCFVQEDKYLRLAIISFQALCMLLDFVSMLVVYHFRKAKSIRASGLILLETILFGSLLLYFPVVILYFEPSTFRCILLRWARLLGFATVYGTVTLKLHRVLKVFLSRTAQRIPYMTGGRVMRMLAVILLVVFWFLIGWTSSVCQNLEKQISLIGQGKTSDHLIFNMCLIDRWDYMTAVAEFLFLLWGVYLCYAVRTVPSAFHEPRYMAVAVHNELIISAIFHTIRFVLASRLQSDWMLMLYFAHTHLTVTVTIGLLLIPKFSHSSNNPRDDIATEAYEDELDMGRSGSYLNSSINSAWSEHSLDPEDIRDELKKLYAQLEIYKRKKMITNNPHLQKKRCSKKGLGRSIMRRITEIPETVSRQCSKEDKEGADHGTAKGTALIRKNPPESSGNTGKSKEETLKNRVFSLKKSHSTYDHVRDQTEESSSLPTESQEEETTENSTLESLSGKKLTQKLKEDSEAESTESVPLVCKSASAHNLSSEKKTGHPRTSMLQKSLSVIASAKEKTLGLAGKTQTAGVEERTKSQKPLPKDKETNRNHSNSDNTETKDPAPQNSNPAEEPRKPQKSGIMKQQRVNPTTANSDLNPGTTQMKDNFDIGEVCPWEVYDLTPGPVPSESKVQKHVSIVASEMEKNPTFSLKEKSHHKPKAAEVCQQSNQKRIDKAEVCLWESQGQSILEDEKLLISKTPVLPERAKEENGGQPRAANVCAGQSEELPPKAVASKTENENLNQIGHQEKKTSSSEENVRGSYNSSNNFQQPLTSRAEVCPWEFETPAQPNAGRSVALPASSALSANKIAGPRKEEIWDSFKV
Experiment: Radioligand binding assay on GPR158 mutant R173A
Text: FIGS. 11A-11G. Probing Cache domain of GPR158 as a ligand binding site A) Computational docking of glycine into putative ligand binding pocket on GPR158 Cache domain. Glycine and directly interacting residues are shown as sticks. Hydrogen bonds and van der Waals interactions are shown as dotted lines. B) Diagram showing interactions in the docked model of glycine against GPR158 Cache domain. Hydrogen bonds are shown as dashed lines, van der Waals interactions are shown as intersecting semicircles, and the secondary structural context of Ser266 and Tyr269 is shown as an arc. Dagger indicates a residue implicated in glycine binding in 11A. C) Radioligand binding assay of ^3H-glycine in cells expressing GPR158 mutants. Data shown mean±s.e.m. of 3 independent experiments, *p<0.05, ns=p>0.05 one-way ANOVA. D) Functional evaluation of GPR158 mutants in GAP BRET assay. Error bars are mean±s.e.m. of 3 independent experiments in triplicate. *p<0.05, **p<0.01, ***p<0.001, ****p<0.0001, ns=p>0.05, two-way ANOVA Columns with no fill (Ctrl), columns with angled-line fill (Glycine) E) Quantification of glycine inhibitory effect on kGAP normalized to the effect seen with WT receptor. […]
Whole cell binding was performed using cDNA of GPR158-venus or each GPR158-venus mutant or empty pcDNA3.1+ for ctrl cells. […] Finally radioactivity was measured using the liquid scintillation analyzer Tri-Carb 4910 TR.

NCC(=O)O [^3H-glycine, [^3H]-glycine]
[^3H]-glycine binding: near complete loss
